Data published in ChEMBL document CHEMBL4507268 (2021).

How the values were obtained:
Settings in all cases: Compound concentration 1000.0 nM
[1] = target: Calcium/calmodulin-dependent protein kinase type II subunit beta (Homo sapiens) (UniProt Q13554)
[2] = target: T1, Serine/threonine-protein kinase Nek1 (Homo sapiens) (UniProt Q96PY6)
T1 sequence (whole entry): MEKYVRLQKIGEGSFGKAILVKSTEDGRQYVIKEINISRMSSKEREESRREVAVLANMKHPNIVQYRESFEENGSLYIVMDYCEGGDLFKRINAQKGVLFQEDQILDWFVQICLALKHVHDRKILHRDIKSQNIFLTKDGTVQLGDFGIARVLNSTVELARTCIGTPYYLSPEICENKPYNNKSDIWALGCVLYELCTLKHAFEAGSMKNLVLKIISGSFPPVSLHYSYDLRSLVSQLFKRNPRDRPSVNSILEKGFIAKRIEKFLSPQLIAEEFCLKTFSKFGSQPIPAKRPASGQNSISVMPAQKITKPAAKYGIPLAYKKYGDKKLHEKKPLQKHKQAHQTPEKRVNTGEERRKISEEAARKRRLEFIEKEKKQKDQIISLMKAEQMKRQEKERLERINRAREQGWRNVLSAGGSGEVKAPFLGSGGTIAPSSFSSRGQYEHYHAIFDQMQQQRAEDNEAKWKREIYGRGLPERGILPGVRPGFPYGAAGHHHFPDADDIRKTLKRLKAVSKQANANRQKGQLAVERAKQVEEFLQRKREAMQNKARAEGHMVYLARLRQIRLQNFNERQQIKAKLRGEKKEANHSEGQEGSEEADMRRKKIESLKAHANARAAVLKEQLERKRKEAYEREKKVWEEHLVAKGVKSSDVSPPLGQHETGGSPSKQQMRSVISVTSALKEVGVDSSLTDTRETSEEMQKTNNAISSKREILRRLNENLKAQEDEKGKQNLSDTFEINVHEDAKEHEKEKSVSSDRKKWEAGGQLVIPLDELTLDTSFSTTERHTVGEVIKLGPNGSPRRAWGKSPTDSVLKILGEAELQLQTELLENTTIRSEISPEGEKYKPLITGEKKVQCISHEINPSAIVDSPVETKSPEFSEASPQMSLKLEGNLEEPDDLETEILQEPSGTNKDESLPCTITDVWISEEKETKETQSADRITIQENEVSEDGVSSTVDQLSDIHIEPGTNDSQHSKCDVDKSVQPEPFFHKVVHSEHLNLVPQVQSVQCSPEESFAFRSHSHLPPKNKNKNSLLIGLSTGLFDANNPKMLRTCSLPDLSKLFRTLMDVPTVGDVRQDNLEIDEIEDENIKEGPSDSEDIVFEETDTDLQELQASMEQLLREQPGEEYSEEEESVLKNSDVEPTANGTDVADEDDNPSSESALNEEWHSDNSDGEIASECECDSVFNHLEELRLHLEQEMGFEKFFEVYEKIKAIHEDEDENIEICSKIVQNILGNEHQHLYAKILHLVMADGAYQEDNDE

[3] = target: T2, Ephrin type-B receptor 2 (Homo sapiens) (UniProt P29323)
T2 sequence (whole entry): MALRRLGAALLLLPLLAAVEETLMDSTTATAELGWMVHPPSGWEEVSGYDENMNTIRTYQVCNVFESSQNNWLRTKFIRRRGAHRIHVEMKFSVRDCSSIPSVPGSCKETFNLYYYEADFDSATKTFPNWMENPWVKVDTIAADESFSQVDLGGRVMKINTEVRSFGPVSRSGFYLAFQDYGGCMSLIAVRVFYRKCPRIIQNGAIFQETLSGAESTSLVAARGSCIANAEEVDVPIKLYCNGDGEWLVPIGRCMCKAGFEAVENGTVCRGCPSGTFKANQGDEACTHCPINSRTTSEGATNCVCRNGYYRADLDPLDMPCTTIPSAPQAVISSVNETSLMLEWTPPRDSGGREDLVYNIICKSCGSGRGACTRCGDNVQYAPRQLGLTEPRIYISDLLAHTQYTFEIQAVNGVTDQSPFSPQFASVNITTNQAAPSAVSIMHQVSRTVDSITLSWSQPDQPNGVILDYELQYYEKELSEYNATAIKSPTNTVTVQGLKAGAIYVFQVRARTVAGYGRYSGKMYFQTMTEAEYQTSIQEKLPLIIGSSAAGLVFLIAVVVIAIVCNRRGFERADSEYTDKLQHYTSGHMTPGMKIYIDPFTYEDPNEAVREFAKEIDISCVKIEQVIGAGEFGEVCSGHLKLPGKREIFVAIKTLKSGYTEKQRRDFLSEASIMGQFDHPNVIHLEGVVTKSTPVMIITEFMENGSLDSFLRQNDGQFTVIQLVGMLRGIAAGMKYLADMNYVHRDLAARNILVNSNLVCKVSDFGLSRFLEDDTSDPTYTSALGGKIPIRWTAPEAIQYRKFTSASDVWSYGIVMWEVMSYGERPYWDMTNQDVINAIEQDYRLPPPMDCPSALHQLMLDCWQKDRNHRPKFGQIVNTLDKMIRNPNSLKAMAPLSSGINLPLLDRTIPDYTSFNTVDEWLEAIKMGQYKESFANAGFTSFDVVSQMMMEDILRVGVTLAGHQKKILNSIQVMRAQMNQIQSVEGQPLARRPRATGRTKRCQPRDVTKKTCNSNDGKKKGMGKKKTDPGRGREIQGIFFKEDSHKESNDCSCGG

[4] = target: T3, Protein kinase C epsilon type (Homo sapiens) (UniProt Q02156)
T3 sequence (whole entry): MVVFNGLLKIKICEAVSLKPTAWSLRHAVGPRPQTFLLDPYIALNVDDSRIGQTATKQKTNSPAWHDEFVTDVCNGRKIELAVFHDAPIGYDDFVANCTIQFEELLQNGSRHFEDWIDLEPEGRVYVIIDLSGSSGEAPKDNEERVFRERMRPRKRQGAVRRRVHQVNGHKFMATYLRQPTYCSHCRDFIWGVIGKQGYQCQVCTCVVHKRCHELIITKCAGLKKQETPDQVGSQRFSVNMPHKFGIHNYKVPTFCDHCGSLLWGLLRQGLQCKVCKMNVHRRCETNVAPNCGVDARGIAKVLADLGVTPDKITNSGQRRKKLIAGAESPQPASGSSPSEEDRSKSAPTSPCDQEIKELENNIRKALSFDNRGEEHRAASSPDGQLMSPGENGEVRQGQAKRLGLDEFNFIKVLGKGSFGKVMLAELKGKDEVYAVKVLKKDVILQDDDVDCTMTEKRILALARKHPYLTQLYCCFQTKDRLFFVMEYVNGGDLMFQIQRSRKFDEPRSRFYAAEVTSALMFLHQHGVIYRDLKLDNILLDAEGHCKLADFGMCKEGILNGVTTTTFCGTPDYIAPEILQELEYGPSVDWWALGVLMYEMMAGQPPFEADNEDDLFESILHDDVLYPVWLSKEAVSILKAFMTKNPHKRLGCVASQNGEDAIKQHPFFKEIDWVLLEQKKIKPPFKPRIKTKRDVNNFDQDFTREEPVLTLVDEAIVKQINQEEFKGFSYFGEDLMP

Measured: residual activity

Chain of Calcium/calmodulin-dependent protein kinase type II subunit beta (Homo sapiens) (Q13554 whole entry): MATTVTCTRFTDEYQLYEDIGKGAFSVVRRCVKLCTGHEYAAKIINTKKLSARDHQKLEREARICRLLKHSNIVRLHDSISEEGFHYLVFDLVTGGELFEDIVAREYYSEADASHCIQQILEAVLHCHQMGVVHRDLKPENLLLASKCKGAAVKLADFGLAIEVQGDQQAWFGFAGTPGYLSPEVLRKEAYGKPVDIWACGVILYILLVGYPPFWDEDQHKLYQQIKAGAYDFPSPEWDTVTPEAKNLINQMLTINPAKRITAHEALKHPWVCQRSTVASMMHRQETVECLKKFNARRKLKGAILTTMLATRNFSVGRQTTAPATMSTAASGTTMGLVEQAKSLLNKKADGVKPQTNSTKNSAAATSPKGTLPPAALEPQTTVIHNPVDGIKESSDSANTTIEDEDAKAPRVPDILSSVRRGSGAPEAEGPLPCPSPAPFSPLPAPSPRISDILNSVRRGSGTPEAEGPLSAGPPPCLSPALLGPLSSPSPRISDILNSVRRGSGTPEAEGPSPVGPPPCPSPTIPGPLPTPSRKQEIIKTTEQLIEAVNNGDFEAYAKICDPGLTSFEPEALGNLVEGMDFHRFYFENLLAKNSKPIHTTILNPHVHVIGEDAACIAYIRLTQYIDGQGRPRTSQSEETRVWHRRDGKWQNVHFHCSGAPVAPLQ

Cc1nc(C2CCN(C(=O)c3ccc(OC(F)(F)F)cc3N)CC2)c2ncc(N3CCN(C)CC3)cc2n1 [BAY-693]
inactive: [1] 100% | [2] 97% | [3] 100% | [4] 100%

CN1CCN(c2cnc3c(C4CCN(C(=O)c5ccc(OC(F)(F)F)cc5N)CC4)ncnc3c2)CC1 [BAY-885]
inactive: [1] 100% | [2] 85% | [3] 78% | [4] 100%
